# Results as given in patent publication US10662223B2, “Composition for organ, tissue, or cell transplantation, kit, and transplantation method” (GemVax & KAEL Co., Ltd., priority 2014, dated 2020).
# “Also recorded” adds a separate entry of the source.
# How the values were obtained:
# [1] = tested on: IL-6; test: Renal IR injury mouse model: IL-6 level in renal tissue; type: in vivo, C57BL/6 mouse; details: 24 hours after IR; 1000 nmol/kg 30 minutes before and 12 hours after IR; compared with PBS control group
# Method: (§1) A renal JR injury mouse model was obtained by inducing IR by bilateral clamping renal pedicles for 30 minutes and restoring blood flow after 30 minutes by removing the clamps. Experimental groups were divided into three groups, which are an administered group (PEP 1), a control group (PBS: without PEP 1 administration), and a Sham group (no bilateral clamping). PEP 1 was subcutaneously injected at a concentration of 1000 nmol/kg 30 minutes before and 12 hours after the IR induction.
# (§2) A C57BL/6 mouse (8-week-old; Charles River Laboratories, Wilmington, Mass.) was used to induce renal IR injury. The renal pedicles were clamped with vascular forceps to block blood flow, and ischemia was induced for […] in the renal IR injury model, followed by reperfusion.
# (§3) The peptide PEP 1 was diluted with PBS to a concentration of 1000 nmol/kg, and then intraperitoneally injected twice, 30 minutes before and 12 hours after the IR.
# (§4) Protein was extracted from renal tissue 24 hours after the IR, and IL-6, MCP-1 and TNF-α levels were measured by a cytometric bead array. Mouse IL-6, MCP-1, TNF-α, and an ELISA kit were purchased from R&D Systems, and the experiment was conducted according to the manufacturer's protocol.
# [2] = tested on: abdominal skin flap; test: Flap IR injury rat model: flap survivability; type: in vivo, Sprague-Dawley Rat; details: 7 days after IR induction; 10 mg/500 μl intramuscularly 30 minutes before and 1, 2, 3, 4, 5, and 7 days after IR; 7 hours ischemia
# Method: Transplantation of a flap of the rectus abdominis was carried out as follows. An IR injury rat model was obtained by detaching a flap with a size of 5 cm×5 cm from abdominal skin of a white rat (Sprague-Dawley Rat, 180 to 230 g), adding PEP1 or saline to the rat, inducing ischemia through clamping, and restoring blood flow after 7 hours by removing the clamps (refer to FIG. 11).
# Experimental groups were divided into three groups, which are an administered group (PEP 1), a control group (PBS without PEP 1), and a sham group (group in which no IR injury induced). PEP 1 (10 mg/500 μl) or saline (500 Id) was intramuscularly injected 30 minutes before and 1, 2, 3, 4, 5, and 7 days after the IR induction.
# Flap survivability was measured 7 days after the IR induction. The flap survivability was measured through digital image analysis using imageJ program.
# [3] = tested on: renal tissue; test: Renal IR injury mouse model: TUNEL staining, renal apoptosis; type: in vivo, C57BL/6 mouse; details: 24 hours after IR; 1000 nmol/kg 30 minutes before and 12 hours after IR; compared with PBS control group
# Method: (§5) A renal JR injury mouse model was obtained by inducing IR by bilateral clamping renal pedicles for 30 minutes and restoring blood flow after 30 minutes by removing the clamps. Experimental groups were divided into three groups, which are an administered group (PEP 1), a control group (PBS: without PEP 1 administration), and a Sham group (no bilateral clamping). PEP 1 was subcutaneously injected at a concentration of 1000 nmol/kg 30 minutes before and 12 hours after the IR induction. A C57BL/6 mouse (8-week-old; Charles River Laboratories, Wilmington, Mass.) was used to induce renal IR injury. The renal pedicles were clamped with vascular forceps to block blood flow, and ischemia was induced for […] in the renal IR injury model, followed by reperfusion. The peptide PEP 1 was diluted with PBS to a concentration of 1000 nmol/kg, and then intraperitoneally injected twice, 30 minutes before and 12 hours after the IR. […] Renal apoptosis was evaluated by staining renal tissue with TUNEL stain 24 hours after the IR. Renal paraffin sections were stained with TUNEL using a TUNEL staining kit (Roche Applied Science, Indianapolis, Ind., USA).
# [4] = tested on: transplanted lung; test: Rat lung transplantation: H&E staining of alveolar tissue; type: in vivo, Sprague-Dawley rat
# Method: (§6) The experiment was performed using two rats with the same gene, and lung transplantation was carried out by detaching the left lung from a donor rat and placing the donor's lung in the left thoracic cavity from which an original left lung was removed of the recipient rat. To basically prevent rejection, the rats had the same gene. Both the donor rat and recipient rat had weights of 300 to 350 g, and were the Sprague-Dawley species. Following the extraction of a lung from the donor rat, the lung was transplanted to the recipient rat through surgical procedures.
# (§7) During perfusion, mechanical ventilation was continuously performed to allow uniform lung perfusion.
# (§8) (4) Following the perfusion, trachea was ligated while the lung expanded under the endotracheal intubation, a heart-lung block was extracted, and then peripheral structures such as esophagus were removed on a cold petri-dish. The heart-lung block was weighed, and subjected to cold storage in a perfusion solution, which was the same as the lung perfusion solution. Ischemic duration was set three hours.
# (§9) For the experiment, the lung transplant rats were divided into four groups. […]
# [5] = tested on: MCP-1; test: Renal IR injury mouse model: MCP-1 level in renal tissue; type: in vivo, C57BL/6 mouse; details: 24 hours after IR; 1000 nmol/kg 30 minutes before and 12 hours after IR; compared with PBS control group
# Method: as §1, §2, §3, §4
# [6] = tested on: transplanted lung; test: Rat lung transplantation: wet/dry weight ratio (reperfusion edema); type: in vivo, Sprague-Dawley rat; details: PERFADEX 50 mL + PEP1 5 mg; lower lobe of transplanted lung
# Method: as §6, §7, §8, §9
# [7] = tested on: transplanted lung; test: Rat lung transplantation: analysis of bronchoalveolar lavage fluid (BAL); type: in vivo, Sprague-Dawley rat; details: PERFADEX 50 mL + PEP1 5 mg
# Method: as §6, §7, §8, §9
# [8] = tested on: renal IR injury mouse model; test: Renal IR injury mouse model: blood urea nitrogen (BUN) and creatine; type: in vivo, C57BL/6 mouse; details: 24 hours after IR; 1000 nmol/kg 30 minutes before and 12 hours after IR; compared with PBS control group
# Method: as §1, §2, §3
# Blood was taken 24 hours after the JR and the levels of blood urea nitrogen (BUN) and creatine as renal toxicity markers were measured, renal tissue was taken and prepared into paraffin blocks for immunohistochemical and histological studies, and then proteins were extracted to measure cytokine levels. The creatine concentration and BUN were measured using an autoanalyzer (Technicon RA-1000; Bayer, Tarrytown, N.Y.).
# [9] = tested on: TNF-α; test: Renal IR injury mouse model: TNF-α level in renal tissue; type: in vivo, C57BL/6 mouse; details: 24 hours after IR; 1000 nmol/kg 30 minutes before and 12 hours after IR; compared with PBS control group
# Method: as §1, §2, §3, §4
# [10] = tested on: macrophages and neutrophils in renal tissue; test: Renal IR injury mouse model: innate immune cell infiltration by immunohistochemistry (F4/80, Gr-1); type: in vivo, C57BL/6 mouse; details: 24 hours after IR; 1000 nmol/kg 30 minutes before and 12 hours after IR; compared with PBS control group
# Method: as §5, with “Infiltration of innate immune cells” for “Renal apoptosis”, “staining the” for “staining”, “a macrophage maker (F4/80) and a neutrophil maker (Gr-1) through immunohistochemistry” for “TUNEL stain”, “Specifically, infiltrated macrophages and neutrophils” for “Renal paraffin sections”, “with” for “with TUNEL using”, “macrophage-specific antibody (F4/80, abcam., Cambridge, Mass.) by an immunochemical method performed on paraffin-containing sections.” for “TUNEL staining kit (Roche Applied Science, Indianapolis, Ind., USA).”
# [11] = PERFADEX 50 mL + PEP1 5 mg as lung preservation solution
sequence,measurement,setting,value
"EARPALLTSRLRFIPK (listed as Homo sapiens) [PEP 1, 16 aa peptide derived from Homo sapiens telomerase, position [611-626]]",IL-6 level in renal tissue,[1],significantly decreased; also recorded: significantly inhibited
same,flap survivability,[2],58.88%±11.44%
same,TUNEL-positive cells (renal apoptosis),[3],remarkably decreased
same,"preventing hemorrhage and maintaining the alveolar wall, 5 mg PEP1 rather than 50 mg PEP1","[4]; PEP1 added to PERFADEX 50 mL, 5 mg compared with 50 mg",more effective
same,alveolar wall of transplanted lung (H&E),[4]; [11],did not get harder
same,hemorrhage in transplanted lung (H&E),[4]; [11],rarely occurred
same,MCP-1 level in renal tissue,[5],significantly decreased; also recorded: significantly inhibited
same,reperfusion edema (wet/dry weight ratio) compared with normal saline administered group,[6],significantly (p<0.05) decreased
same,reperfusion edema level among the four groups,[6],lowest level
same,expression of inflammatory cells in BAL among the four groups,[7],lowest expression
same,blood urea nitrogen (BUN) level,[8],significantly decreased
same,creatine level,[8],significantly decreased
same,TNF-α level in renal tissue,[9],no significant difference
same,infiltration of macrophages into renal tissue (F4/80),[10],remarkably decreased; also recorded: inhibited
same,infiltration of neutrophils into renal tissue (Gr-1),[10],remarkably decreased; also recorded: inhibited
